Tests used:
[1] = target: T1, TaGDH (Thermoplasma acidophilum glucose dehydrogenase) (Thermoplasma acidophilum, UniProt P13203); assay: NADPH formation at […] nm, initial rate; format: biochemical; conditions: free enzyme; NADP+ 0.2 mM; HEPES-NaOH pH 6.5, 37 °C; partially purified
T1 construct: gene gdh; pET21b(+) in E. coli Rosetta(DE3)pLysS; partially purified by heat treatment (60 °C, 15 min)
T1 sequence (P13203 2-361): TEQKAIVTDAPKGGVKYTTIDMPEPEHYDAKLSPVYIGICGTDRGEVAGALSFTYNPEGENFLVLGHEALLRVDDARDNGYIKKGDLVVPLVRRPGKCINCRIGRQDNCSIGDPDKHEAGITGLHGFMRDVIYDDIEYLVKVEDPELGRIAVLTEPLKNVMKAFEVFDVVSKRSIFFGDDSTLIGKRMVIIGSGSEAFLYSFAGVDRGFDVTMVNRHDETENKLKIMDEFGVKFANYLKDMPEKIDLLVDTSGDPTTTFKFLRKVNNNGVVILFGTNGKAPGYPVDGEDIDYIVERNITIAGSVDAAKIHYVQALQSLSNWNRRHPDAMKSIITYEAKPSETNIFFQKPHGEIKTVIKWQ

[2] = target: T2, TaIDH (T. acidophilum isocitrate dehydrogenase) (Thermoplasma acidophilum, UniProt Q9HLV8); assay: NADPH formation at […] nm, initial rate (oxidative decarboxylation); format: biochemical; conditions: free enzyme; NADP+ 0.2 mM, MgCl2 0.4 mM; HEPES-NaOH pH 6.5, 37 °C; partially purified
T2 construct: gene Ta0117; pET21b(+) in E. coli BL21(DE3)pLysS; partially purified by heat treatment (60 °C, 15 min)
T2 sequence (Q9HLV8 1-405): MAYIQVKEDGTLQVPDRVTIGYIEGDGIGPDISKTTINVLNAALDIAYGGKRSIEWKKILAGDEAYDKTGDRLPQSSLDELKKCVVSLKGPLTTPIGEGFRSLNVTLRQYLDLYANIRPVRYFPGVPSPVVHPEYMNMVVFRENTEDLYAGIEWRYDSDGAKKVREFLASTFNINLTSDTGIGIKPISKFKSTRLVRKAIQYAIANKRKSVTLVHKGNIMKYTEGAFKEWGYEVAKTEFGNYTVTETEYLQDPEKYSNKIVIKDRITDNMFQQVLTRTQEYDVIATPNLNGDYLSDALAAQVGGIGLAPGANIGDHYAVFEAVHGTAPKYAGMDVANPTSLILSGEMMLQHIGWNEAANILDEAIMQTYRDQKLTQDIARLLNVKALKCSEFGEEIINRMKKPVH

SMILES | NADPH formation at 340 nm, initial rate [1] | NADPH formation at 340 nm, initial rate (oxidative decarboxylation) [2]
OC[C@H]1OC(O)[C@H](O)[C@@H](O)[C@@H]1O (stereo partly drawn) [D-glucose] | micromoles of NADPH released by the oxidation of glucose per minute | –
O=C(O)CC(C(=O)O)C(O)C(=O)O (racemic) [DL-isocitric acid] | – | NADPH released by the decarboxylation and oxidation of DL-isocitric acid per minute

Reference: paper PMC10796475, “Immobilization of Thermoplasma acidophilum Glucose Dehydrogenase and Isocitrate Dehydrogenase Through Enzyme-Inorganic Hybrid Nanocrystal Formation” (Current Microbiology, 2024)
